Test results taken from the supplement of paper PMC10307832.

How the values were obtained:
Assay in all cases: relative viability (nuclei count vs DMSO), 5 days (fraction); higher = more cells survive
[1] = compound: O=C(/C=C/c1ccccc1)NC(NC(=S)Nc1cccc2cccnc12)C(Cl)(Cl)Cl [Salubrinal] + COc1cc2c(Oc3ccc(NC(=O)C4(C(=O)Nc5ccc(F)cc5)CC4)cc3F)ccnc2cc1OCCCN1CCOCC1 [Foretinib] (partner 0.25 µM)
Procedure, shortened: (§1)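 Each reported value is a median over duplicate plates. It expresses relative viability: treated-well nuclei count divided by vehicle-well nuclei count. Lung cancer cell lines in 1536-well plates were dosed by pin tool a day after seeding, alone with one drug or with a fixed anchor-drug dose plus five library-drug doses (not always all listed) in √10 steps, and nuclei were counted after 5 days.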

[2] = compound: Cc1ccc2nc(NCCN)c3ncc(C)n3c2c1 + Nc1nc2[nH]cc(CCc3ccc(C(=O)N[C@@H](CCC(=O)O)C(=O)O)cc3)c2c(=O)[nH]1 [Pemetrexed] (partner 0.2 µM)
Procedure, shortened: as §1

[3] = compound: O=C(/C=C/c1ccccc1)NC(NC(=S)Nc1cccc2cccnc12)C(Cl)(Cl)Cl [Salubrinal] + Nc1nc2[nH]cc(CCc3ccc(C(=O)N[C@@H](CCC(=O)O)C(=O)O)cc3)c2c(=O)[nH]1 [Pemetrexed] (partner 0.2 µM)
Procedure, shortened: as §1

[4] = compound: O=C(/C=C/c1ccccc1)NC(NC(=S)Nc1cccc2cccnc12)C(Cl)(Cl)Cl [Salubrinal] + CC(=O)Nc1cccc(-n2c(=O)n(C3CC3)c(=O)c3c(Nc4ccc(I)cc4F)n(C)c(=O)c(C)c32)c1 [Trametinib] (partner 0.02 µM)
Procedure, shortened: as §1

Cell Line | relative viability ([1]; first compound 0.08 µM) | relative viability ([1]; first compound 0.253 µM) | relative viability ([1]; first compound 0.8 µM) | relative viability ([1]; first compound 2.53 µM) | relative viability ([1]; first compound 8 µM) | relative viability ([2]; first compound 0.04 µM) | relative viability ([2]; first compound 0.1265 µM) | relative viability ([2]; first compound 0.4 µM) | relative viability ([2]; first compound 1.265 µM) | relative viability ([2]; first compound 4 µM) | relative viability ([3]; first compound 0.08 µM) | relative viability ([3]; first compound 0.253 µM) | relative viability ([3]; first compound 0.8 µM) | relative viability ([3]; first compound 2.53 µM) | relative viability ([3]; first compound 8 µM) | relative viability ([4]; first compound 0.08 µM) | relative viability ([4]; first compound 0.253 µM) | relative viability ([4]; first compound 0.8 µM) | relative viability ([4]; first compound 2.53 µM) | relative viability ([4]; first compound 8 µM)
RERF-LC-KJ | 0.959 | 0.699 | 0.941 | 0.921 | 0.706 | 0.489 | 0.474 | 0.435 | 0.485 | 0.518 | 0.458 | 0.496 | 0.501 | 0.446 | 0.415 | 0.872 | 0.867 | 0.938 | 0.795 | 0.81
NCI-H1650 | 1.26 | 1.02 | 1.08 | 1.14 | 0.894 | 0.352 | 0.386 | 0.349 | 0.376 | 0.332 | 0.354 | 0.3 | 0.398 | 0.383 | 0.376 | 0.691 | 0.5 | 0.592 | 0.517 | 0.54
BEN | 0.505 | 0.867 | 1.01 | 0.627 | 0.643 | 0.978 | 0.894 | 0.817 | 0.712 | 0.801 | 0.744 | 0.753 | 0.971 | 0.846 | 0.791 | 1.07 | 1.03 | 1.07 | 1.14 | 1.12
EMC-BAC-2 | 0.975 | 1 | 1.21 | 1.03 | 0.98 | 0.463 | 0.43 | 0.4 | 0.448 | 0.496 | 0.42 | 0.441 | 0.459 | 0.473 | 0.478 | 0.948 | 0.878 | 0.937 | 0.906 | 0.973
LU99A | 0.92 | 0.802 | 0.841 | 0.703 | 0.789 | 0.165 | 0.209 | 0.208 | 0.188 | 0.209 | 0.176 | 0.205 | 0.265 | 0.265 | 0.185 | 0.589 | 0.515 | 0.614 | 0.548 | 0.56
ABC-1 | 1.15 | 1.05 | 0.972 | 0.993 | 0.886 | – | – | – | – | – | – | – | – | – | – | – | – | – | – | –
NCI-H1793 | 0.879 | 0.645 | 0.754 | 0.595 | 0.508 | 0.951 | 0.85 | 0.846 | 0.714 | 0.766 | 1.13 | 0.81 | 1.24 | 0.805 | 0.76 | 0.484 | 0.437 | 0.402 | 0.42 | 0.304
NCI-H1299 | 1.12 | 1.07 | 1.14 | 1.05 | 1.05 | – | – | – | – | – | – | – | – | – | – | – | – | – | – | –
EBC-1 | 0.112 | 0.0951 | 0.12 | 0.102 | 0.0993 | – | – | – | – | – | – | – | – | – | – | – | – | – | – | –
NCI-H2347 | 0.906 | 1.15 | 1.4 | 0.797 | 1.08 | 0.447 | 0.479 | 0.454 | 0.412 | 0.424 | 0.43 | 0.43 | 0.423 | 0.452 | 0.529 | 0.279 | 0.258 | 0.395 | 0.262 | 0.294
NCI-H1993 | 0.818 | 0.767 | 0.792 | 0.736 | 0.713 | 0.595 | 0.623 | 0.528 | 0.57 | 0.613 | 0.666 | 0.596 | 0.524 | – | 0.573 | 0.506 | 0.614 | 0.503 | – | 0.616
NCI-H322M | 1.07 | 1.07 | 0.969 | 0.832 | 0.856 | 0.654 | 0.621 | 0.62 | 0.634 | 0.647 | 0.699 | 0.578 | 0.684 | 0.574 | 0.544 | 0.542 | 0.517 | 0.487 | 0.565 | 0.521
NCI-H838 | 1.13 | 1.11 | 1.06 | 1.02 | 1.06 | 0.277 | 0.247 | 0.252 | 0.302 | 0.419 | 0.253 | 0.231 | 0.257 | 0.267 | 0.23 | 0.657 | 0.678 | 0.534 | 0.518 | 0.552
HARA | 0.836 | 0.628 | 0.917 | 1.08 | 0.69 | 0.217 | 0.237 | 0.226 | 0.236 | 0.234 | 0.254 | 0.285 | 0.327 | 0.273 | 0.254 | 0.715 | 0.873 | 0.631 | 0.621 | 0.702
NCI-H1792 | – | – | – | – | – | 1.33 | 0.774 | – | 0.801 | 0.618 | 1.07 | – | 1.24 | 0.795 | 0.572 | 0.533 | – | 0.524 | 0.374 | 0.631
HCC-44 | – | – | – | – | – | 0.679 | 0.704 | 0.643 | 0.594 | 0.709 | 0.641 | 0.708 | 0.66 | 0.698 | 0.662 | 1.19 | 1.11 | 1.16 | 1.09 | 1.04
NCI-H1648 | – | – | – | – | – | 0.696 | 0.85 | 0.723 | 0.627 | 0.7 | 0.843 | 0.637 | 0.759 | 0.705 | 0.584 | 0.657 | 0.456 | 0.662 | 0.492 | 0.325
NCI-H1623 | 0.735 | 0.787 | 0.891 | 0.824 | 0.888 | – | – | – | – | – | – | – | – | – | – | – | – | – | – | –
A549 | 1.01 | 0.753 | 0.932 | 0.861 | 0.892 | – | – | – | – | – | – | – | – | – | – | – | – | – | – | –
NCI-H1563 | 0.952 | 0.919 | 0.903 | 0.929 | 0.866 | 0.861 | 0.78 | 0.877 | 0.718 | 0.705 | 0.671 | 0.761 | 0.907 | 0.784 | 0.798 | – | – | – | – | –
IA-LM | 1.21 | 0.764 | 1.17 | 1.12 | 0.775 | – | – | – | – | – | – | – | – | – | – | – | – | – | – | –
NCI-H1703 | 0.319 | 0.459 | 0.349 | 0.354 | 0.337 | – | – | – | – | – | – | – | – | – | – | – | – | – | – | –
NCI-H727 | 1.09 | 0.856 | 1.06 | 0.778 | 0.898 | – | – | – | – | – | – | – | – | – | – | 0.375 | 0.375 | 0.383 | 0.372 | 0.403
